The results in this text go back to patent US7378419B2, “9-amino-podophyllotoxin derivatives, method for the production thereof and pharmaceutical compositions containing said derivatives” (Les Laboratoires Servier, priority 2003, dated 2008).

Data set [1] relates to A549 human pulmonary carcinoma. Briefly: In vivo anti-tumor activity on A549 human pulmonary carcinoma. As to conditions: A549, 3.12 mg/kg. The source says:
*Anti-Tumor Activity of the Compounds on P388 Leukemia and on A549 Human Pulmonary Carcinoma:
(§1) The anti-tumor activity is expressed in T/C %: T/C%=(median survival time of the treated animals)/(median survival time of the control animals)×100

The next data set relates to KB-3-1. Briefly: In vitro cytotoxicity, microculture tetrazolium assay, KB-3-1. The data set is classed as cell-based. As to conditions: KB-3-1 human epidermal carcinoma, 48 hours exposure. Here is the method:
(§2) Six cell lines were used: • 1 murine leukemia: L1210 • 1 human epidermal carcinoma: KB-3-1 • 1 human pulmonary carcinoma, not small cell: A549 • 1 melanoma: A375 • 1 neuroblastoma: SK-N-MC • 1 fibrosarcoma: HT1080
(§3) The cells are cultivated in complete RPMI 1640 culture medium containing 10% of fetal calf serum, 2 mM of glutamine, 50 U/ml of penicillin, 50 μg/ml of streptomycin and 10 mM of Hepes, pH: 7.4. The cells are distributed in microplates and exposed to cytotoxic compounds for 4 doubling times, which is 48 hours. The number of viable cells is then quantified by a […] assay, the microculture tetrazolium assay (J. Carmichael et al., Cancer Res.; 47, 936-942, (1987)). The results are expressed as IC50, the cytotoxic concentration that inhibits the proliferation of the treated cells by 50%.

For the next data set, the system named is A549. Description: In vitro cytotoxicity, microculture tetrazolium assay, A549. It counts as cell-based. As to conditions: A549 human pulmonary carcinoma, not small cell, 48 hours exposure. Here is the method:
as §2, §3

For a further data set, the system named is SK-N-MC. Briefly: In vitro cytotoxicity, microculture tetrazolium assay, SK-N-MC. The data set is classed as cell-based. As to conditions: Homo sapiens; SK-N-MC neuroblastoma, 48 hours exposure. As to the method:
as §2, §3

A further data set deals with L1210 cells. Briefly: Action on the cell cycle (G2+M accumulation). It counts as cell-based, murine. As to conditions: L1210, after 21 hours, concentration of 250 nM (control: 20%). As to the method: The L1210 cells are incubated for 21 hours at 37° C. in the presence of various concentrations of the products tested. The cells then are fixed with 70% ethanol (v/v), washed twice in PBS and incubated for 30 minutes at 20° C. in PBS containing 100 μg/ml of RNase and 50 μg/ml of propidium iodide. The results are expressed as a percentage of cells accumulated in phase G2+M after 21 hours compared to the control (control: 20%). The compounds of examples 2 and 4 induce an accumulation of 70% and 81%, respectively, of the cells in phase G2+M after 21 hours at a concentration of 250 nM.

For another data set, the system named is P388 leukemia. Description: In vivo anti-tumor activity on P388 leukemia. As to conditions: P388, 50 mg/kg, intravenously on day 1, female BDF1 mice. As to the method: The P388 line (murine leukemia) was provided by the National Cancer Institute (Frederick, Md., USA). The tumor cells (10^6 cells) were inoculated on day 0 in the peritoneal cavity of female BDF1 mice (Iffa-Credo, France) weighing from 18 to 20 g (groups of 6 animals). The products were administered intravenously on day 1.
as §1

In the next data set the test system is L1210. Description: In vitro cytotoxicity, microculture tetrazolium assay, L1210. As to conditions: L1210 murine leukemia, 48 hours exposure. The data set is classed as cell-based. Here is the method: as §2, §3
The test system of the next data set is HT1080. Briefly: In vitro cytotoxicity, microculture tetrazolium assay, HT1080. The data set is classed as cell-based. As to conditions: Homo sapiens, HT-1080; HT1080 fibrosarcoma, 48 hours exposure. Here is the method: as §2, §3
In another data set the test system is A375. Briefly: In vitro cytotoxicity, microculture tetrazolium assay, A375. The data set is classed as cell-based. As to conditions: Homo sapiens, A-375; A375 melanoma, 48 hours exposure. Here is the method: as §2, §3

Consider `COc1cc([C@@H]2c3cc4c(cc3[C@@H](NC3=CC(=O)N(Cc5ccc(F)cc5)C3=O)[C@H]3COC(=O)[C@H]23)OCO4)cc(OC)c1O[Si](C)(C)C(C)(C)C`, for which the melting point – broadly, the temperature of the solid-liquid transition – is 182 to 184 °C.
On the same count and under the same terms, then `COc1cc([C@@H]2c3cc4c(cc3[C@@H](NC3=CC(=O)N(Cc5ccc(NC(C)=O)cc5)C3=O)[C@H]3COC(=O)[C@H]23)OCO4)cc(OC)c1O`, with 200 to 204 °C (dec.).
Take `COc1cc([C@@H]2c3cc4c(cc3[C@@H](NC3=CC(=O)N(C)C3=O)[C@H]3COC(=O)[C@H]23)OCO4)cc(OC)c1O` [Example 2, 3-{[(5S,5aS,8aR,9R)-9-(4-Hydroxy-3,5-dimethoxyphenyl)-8-oxo-5,5a,6,8,8a,9-hexahydrofuro[3′,4′:6,7]naphtho[2,3-d][1,3]dioxol-5-yl]amino}-1-methyl-1H-pyrrole-2,5-dione]: the T/C (commonly the ratio of treated to control) in [1] is 225%. Further, the half-maximal inhibitory concentration (IC50) (usually the concentration that gives 50% inhibition) in the data set with KB-3-1 was found to be 66.6 nM; with A549, 110 nM; in the data set on SK-N-MC, 106 nM; in the data set with L1210 (Mus musculus), 54 nM; in the data set on HT1080, 75.8 nM; in the data set with A375, 44.2 nM. For the same compound, in the data set on L1210 cells, the “percentage of cells accumulated in phase G2+M” value turned out to be 70%. Besides, in the data set on P388 leukemia, the “T/C (median survival time treated/control x 100)” value is > 575%. Besides, the “animals surviving as of day 60” value in the data set with P388 leukemia is recorded as 50%.
In turn, `COc1cc([C@@H]2c3cc4c(cc3[C@@H](NC3=CC(=O)N(Cc5ccc(NC(C)=O)cc5)C3=O)[C@H]3COC(=O)[C@H]23)OCO4)cc(OC)c1O[Si](C)(C)C(C)(C)C` had a melting point of 177 to 179 °C.
For `COc1cc([C@@H]2c3cc4c(cc3[C@@H](NC3=CC(=O)N(Cc5ccc(F)cc5)C3=O)[C@H]3COC(=O)[C@H]23)OCO4)cc(OC)c1O`, the melting point lay within 214 to 216 °C.
The same measure, in the same setting: for `C=CCN1C(=O)C=C(N[C@@H]2c3cc4c(cc3[C@@H](c3cc(OC)c(O)c(OC)c3)[C@H]3C(=O)OC[C@@H]32)OCO4)C1=O` the value was 180 to 183 °C; for `COc1cc([C@@H]2c3cc4c(cc3[C@@H](NC3=C(C)C(=O)N(C)C3=O)[C@H]3COC(=O)[C@H]23)OCO4)cc(OC)c1O`, 172 to 176 °C.
The compound `COc1cc([C@@H]2c3cc4c(cc3[C@@H](NC3=CC(=O)N(Cc5ccc(C(F)(F)F)cc5)C3=O)[C@H]3COC(=O)[C@H]23)OCO4)cc(OC)c1O` yielded a melting point of 184 to 186 °C.
On the same count and under the same terms, for `COc1cc([C@@H]2c3cc4c(cc3[C@@H](NC3=CC(=O)N(CCCCCC(=O)O)C3=O)[C@H]3COC(=O)[C@H]23)OCO4)cc(OC)c1O` the value was 150 to 152 °C.
`COc1cc([C@@H]2c3cc4c(cc3[C@@H](NC3=CC(=O)N(Cc5ccccc5)C3=O)[C@H]3COC(=O)[C@H]23)OCO4)cc(OC)c1O` [Example 4, 3-{[(5S,5aS,8aR,9R)-9-(4-Hydroxo-3,5-dimethoxyphenyl)-8-oxo-5,5a,6,8,8a,9-hexahydrofuro[3′,4′:6,7]naphtho[2,3-d][1,3]dioxol-5-yl]amino}-1-benzyl-1H-pyrrole-2,5-dione]: the “percentage of cells accumulated in phase G2+M” value in the data set with L1210 cells is recorded as 81%. Also, 29 nM corresponded to half-maximal inhibition in the data set with L1210 (IC50).
